Source: ChEMBL document CHEMBL1201862, “PubChem BioAssay data set” (2004)
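Exposure lasted 48 hours, with cells grown in 96-well plates and compounds tested at five concentrations. Here, GI50 denotes the concentration required for 50% inhibition of growth.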 Activity calls are given as the source filed them. Cut-off read from the data, not from the text of the source: active = GI50 up to about 1.1 µM and inactive = higher.

Key:
Experiment in all cases: DTP human tumour cell line panel, 48 h
[1] = tested on: RPMI-8226
[2] = tested on: NCI-H226
[3] = tested on: UACC-257
[4] = tested on: OVCAR-4
[5] = tested on: SNB-19
[6] = tested on: SF-268
[7] = tested on: Malme-3M
[8] = tested on: MOLT-4
[9] = tested on: UACC-62
[10] = tested on: A549
[11] = tested on: T47D
[12] = tested on: SNB-75
[13] = tested on: DU-145
[14] = tested on: CCRF-CEM
[15] = tested on: K562
[16] = tested on: RXF 393

Measured: GI50

O=[N+]([O-])c1ccc2[nH]c(-c3ccc(Cl)cc3)nc2c1
inactive: [1] 23.2 µM | [2] 22.3 µM | [3] 20.5 µM | [4] 32.7 µM | [5] 26 µM | [6] 19 µM | [7] 28.4 µM | [8] 25.4 µM | [9] 21.2 µM | [10] 20.8 µM | [11] 24.6 µM | [12] 25 µM | [13] 25.2 µM

CN(C)CCCNc1ncnc2[nH]cnc12
inactive: [1] > 100 µM | [2] > 100 µM | [14] > 100 µM | [4] > 100 µM | [5] > 100 µM | [6] > 100 µM | [7] > 100 µM | [8] > 100 µM | [9] > 100 µM | [10] > 100 µM | [11] > 100 µM | [13] > 100 µM | [15] > 100 µM | [16] > 100 µM

Sc1ncc2[nH]nnc2n1
inactive: [1] > 100 µM | [2] > 100 µM | [14] > 100 µM | [3] > 100 µM | [4] > 100 µM | [5] > 100 µM | [6] > 100 µM | [7] > 100 µM | [8] > 100 µM | [10] > 100 µM | [12] > 100 µM | [13] > 100 µM | [15] > 100 µM | [16] > 100 µM

Cn1c(-c2cccs2)cc(-c2ccccc2)c1-c1cccs1
inactive: [1] > 100 µM | [2] 45.4 µM | [14] > 100 µM | [3] 48.2 µM | [4] 74.3 µM | [5] 12.2 µM | [6] > 100 µM | [8] 66.2 µM | [9] 97.5 µM | [10] 12.3 µM | [11] > 100 µM | [12] > 100 µM | [13] > 100 µM | [15] > 100 µM | [16] > 100 µM

CCOC(=O)NC(=S)NN(C)C1=NCC(C)(C)S1
inactive: [1] > 100 µM | [14] > 100 µM | [3] > 100 µM | [5] > 100 µM | [8] > 100 µM | [9] > 100 µM | [10] > 100 µM | [11] > 100 µM | [12] > 100 µM | [13] > 100 µM | [15] > 100 µM | [16] > 100 µM

CCOP(=O)(OCC)/C(C#N)=C/c1coc2cc(C)cc(C)c2c1=O
inactive: [1] > 100 µM | [2] > 100 µM | [14] > 100 µM | [3] > 100 µM | [4] > 100 µM | [5] > 100 µM | [6] > 100 µM | [7] > 100 µM | [8] > 100 µM | [9] 67 µM | [10] > 100 µM | [12] > 100 µM | [13] > 100 µM | [15] > 100 µM

CC1(C)C/C(=N/O)c2c(nc3ccc4ccccc4c3c2-c2ccc(Cl)cc2)C1
inactive: [1] 27.2 µM | [2] 21 µM | [14] 10.9 µM | [3] 25.4 µM | [4] 13.8 µM | [5] 35 µM | [6] 14.2 µM | [8] 18.2 µM | [9] 17.3 µM | [10] 19.4 µM | [11] 12.1 µM | [12] 16.2 µM | [13] 16.5 µM | [15] 19 µM | [16] 17.6 µM

CC(C)=CC(=O)c1[nH]c2ccccc2c1CC(=O)NCCc1c[nH]cn1
inactive: [2] > 100 µM | [14] > 100 µM | [3] > 100 µM | [4] > 100 µM | [5] > 100 µM | [6] > 100 µM | [7] > 100 µM | [8] > 100 µM | [9] > 100 µM | [10] > 100 µM | [11] > 100 µM | [12] > 100 µM | [13] > 100 µM | [15] > 100 µM | [16] > 100 µM

Cn1c(=O)c2c(nc(NCCCCl)n2CC(=O)NCCCCl)n(C)c1=O
inactive: [1] > 100 µM | [2] > 100 µM | [14] > 100 µM | [3] > 100 µM | [4] > 100 µM | [5] > 100 µM | [6] > 100 µM | [8] > 100 µM | [9] > 100 µM | [10] > 100 µM | [11] > 100 µM | [12] > 100 µM | [13] > 100 µM | [15] > 100 µM | [16] > 100 µM

COC(=O)C1=C(C(=O)OC)C(OO)(c2ccccc2)OC1=O (stereo unspecified)
inactive: [2] > 100 µM | [14] 55.6 µM | [3] > 100 µM | [4] > 100 µM | [5] > 100 µM | [7] > 100 µM | [8] > 100 µM | [9] 34.2 µM | [10] > 100 µM | [11] > 100 µM | [12] 50.7 µM | [13] > 100 µM | [15] 52.7 µM | [16] > 100 µM

CC1CCC(O)(C(C)(C(=O)O)c2ccccc2)CC1 (stereo unspecified)
inactive: [2] 91.6 µM | [14] 82.8 µM | [3] > 100 µM | [4] > 100 µM | [5] 48.3 µM | [6] > 100 µM | [7] 63.4 µM | [8] 22 µM | [9] > 100 µM | [10] 42.2 µM | [11] > 100 µM | [13] > 100 µM | [15] > 100 µM | [16] > 100 µM

Cn1c(=O)n2n(c1=O)C([S+]([O-])c1ccccc1)C2 (stereo unspecified)
inactive: [1] > 100 µM | [14] 20.2 µM | [3] > 100 µM | [4] > 100 µM | [5] > 100 µM | [6] > 100 µM | [8] 18.5 µM | [9] > 100 µM | [10] 65.2 µM | [12] > 100 µM | [13] > 100 µM | [15] > 100 µM | [16] > 100 µM

COc1ccc(C2(O)C(S(=O)(=O)c3ccc(C)cc3)=Cc3ccc(OC)cc32)cc1 (stereo unspecified)
inactive: [1] > 100 µM | [2] > 100 µM | [14] > 100 µM | [3] > 100 µM | [5] 43.7 µM | [6] 31.6 µM | [8] > 100 µM | [10] > 100 µM | [11] 69.5 µM | [12] 25.9 µM | [13] 71.3 µM | [15] > 100 µM

NC(=O)C(=CNC(=S)Nc1cccc(C(F)(F)F)c1)C(N)=O
inactive: [1] > 100 µM | [2] > 100 µM | [14] > 100 µM | [3] > 100 µM | [4] > 100 µM | [5] > 100 µM | [6] > 100 µM | [8] > 100 µM | [9] > 100 µM | [10] > 100 µM | [11] > 100 µM | [12] 51.9 µM | [13] > 100 µM | [15] > 100 µM | [16] > 100 µM

OCC1C(OCc2ccccc2)C(OCc2ccccc2)C(OCc2ccccc2)CN1Cc1ccccc1 (stereo unspecified)
inactive: [2] 33.8 µM | [14] 28.8 µM | [3] 19.6 µM | [4] 46.7 µM | [5] 96.8 µM | [6] 65.5 µM | [7] 27.9 µM | [8] 7.62 µM | [9] > 100 µM | [10] 18.7 µM | [11] 22.6 µM | [12] 13 µM | [13] > 100 µM | [15] 16.3 µM | [16] 17.4 µM

COC(=O)C(/C(=N/N)C(=O)Nc1ccc(C)c(C)c1)c1nc2ccc(Cl)cc2nc1O (stereo unspecified)
inactive: [1] > 100 µM | [2] > 100 µM | [14] > 100 µM | [3] > 100 µM | [4] > 100 µM | [6] > 100 µM | [7] > 100 µM | [8] > 100 µM | [9] > 100 µM | [10] > 100 µM | [11] > 100 µM | [12] > 100 µM | [15] > 100 µM | [16] > 100 µM

CCc1cccc2c3c([nH]c12)-c1ccccc1NC(=O)C3
inactive: [1] 67.5 µM | [2] 14.1 µM | [14] > 100 µM | [3] > 100 µM | [5] > 100 µM | [6] 48.2 µM | [8] 8.89 µM | [9] 65.9 µM | [10] > 100 µM | [11] 3.66 µM | [12] 13.2 µM | [13] > 100 µM | [15] 19.4 µM

C=CCOn1c(C=C)nc2c(C)cccc21
inactive: [1] 2.43 µM | [2] 5.47 µM | [14] 1.33 µM | [3] 2.99 µM | [4] 8.89 µM | [5] 5.2 µM | [6] 3.89 µM | [7] 11.6 µM | [8] 3.64 µM | [9] 2.56 µM | [10] 3.38 µM | [11] 1.99 µM | [12] 3.59 µM | [15] 3.57 µM

Cc1ccc2c(O)cc(-c3ccc4ccccc4c3)nc2n1
inactive: [1] 4.48 µM | [2] 5.81 µM | [14] 3.66 µM | [3] 5.58 µM | [4] 6.25 µM | [5] 9.48 µM | [6] 6.9 µM | [7] 4.46 µM | [8] 4.45 µM | [9] 3.64 µM | [10] 7.89 µM | [11] 7 µM | [12] 2.75 µM | [13] 15.5 µM | [15] 3.41 µM
